In ChEMBL document CHEMBL5365472, “DDD-028: A potent, neuroprotective, non-opioid compound for the treatment of diabetic neuropathy” (Bioorg Med Chem Lett, 2023) one finds Activity data, which are given here for 2 compounds.

Structures are written as SMILES. Activity calls are given as the source filed them.

Assay type in all cases: functional, organism-based
The test system of assay [1] is Rattus norvegicus. Kind of assay: Analgesic activity in rat acute pain model at 3 mg/kg by hot plate test.
Assay [2] deals with Rattus norvegicus. Put plainly: Analgesic activity in rat acute pain model at 3 mg/kg by tail flick test. In general terms: In hot-plate and tail-flick tests a longer latency is read as antinociception.
Assay [3] relates to Rattus norvegicus. Put plainly: Analgesic activity in rat acute pain model at 1 to 10 mg/kg by tail flick test. The settings on record: dose 1-10 mg/kg.
For assay [4], the system named is Rattus norvegicus. Kind of assay: Anti-allodynic activity in rat model of STZ induced diabetic neuropathy assessed as reduction in mechanical allodynia by measuring increase in paw withdrawal threshold at 25 mg/kg, po measured for 90 min by electronic von frey test.
In assay [5] the test system is Rattus norvegicus. Put plainly: Anti-allodynic activity in rat model of STZ induced diabetic neuropathy assessed as reduction in mechanical allodynia by measuring increase in paw withdrawal threshold at 1 mg/kg, po measured after 30 min by electronic von frey test.
Assay [6] relates to Rattus norvegicus. Kind of assay: Anti-allodynic activity in rat model of STZ induced diabetic neuropathy assessed as reduction in mechanical hyperalgesia by measuring increase in weight bearing at 1 mg/kg, po measured after 30 min by paw pressure test.
Assay [7] has as its system Rattus norvegicus. Kind of assay: Analgesic activity in rat acute pain model at 1 to 10 mg/kg by hot plate test. Conditions: dose 1-10 mg/kg.
Another assay has as its system Mus musculus. Put plainly: Anti-allodynic activity in mouse model of CCI induced neuropathic pain assessed as increase in paw withdrawal threshold at 3 mg/kg, po by static von frey test.
In assay [8] the test system is Rattus norvegicus. Put plainly: Anti-allodynic activity in rat model of STZ induced diabetic neuropathy assessed as reduction in mechanical hyperalgesia by measuring increase in weight bearing at 25 mg/kg, po measured after 90 min by paw pressure test.

As for `CN1CC[C@]23c4c5ccc(O)c4O[C@H]2[C@@H](O)C=C[C@H]3[C@H]1C5`, the outcome in the assay on Rattus norvegicus [1] and in the assay with Rattus norvegicus [2] was Active.

As to `CN1CCc2c(c3cccc4c3n2CCc2ccccc2-4)C1`, the outcome in the assay on Rattus norvegicus [3] and in the assay on Rattus norvegicus [7] was inactive. Besides, the outcome with Rattus norvegicus [4], with Rattus norvegicus [5], in the assay on Rattus norvegicus [6], with Mus musculus and in the assay on Rattus norvegicus [8] was Active.
